Drawing on ChEMBL document CHEMBL1130210, “Steroidal glycoside cholesterol absorption inhibitors” (1997), this text covers ED50 for 31 compounds.

The assay deals with Cricetinae gen. sp. The assay can be described thus: Ability to inhibit the intestinal absorption of [3H]cholesterol in cholesterol-fed hamsters. The format is functional.
As to `C[C@@H]1CC[C@@]2(OC1)OC1C[C@H]3[C@@H]4CC[C@H]5C[C@@H](O[C@@H]6O[C@@H](CO)[C@@H](O[C@@H]7O[C@@H](COC(=O)Nc8ccccc8F)[C@@H](O)[C@H](O)[C@@H]7O)[C@H](O)[C@@H]6O)CC[C@]5(C)[C@H]4C(=O)C[C@]3(C)C1[C@@H]2C` (stereo partly specified), the 50% effect level (ED50) was put at a dose of 0.2 mg/kg. `C[C@@H]1CC[C@@]2(OC1)O[C@H]1C[C@H]3[C@@H]4CC[C@H]5C[C@@H](O[C@@H]6O[C@H](CO)[C@H](O)[C@H](O)[C@H]6O)CC[C@]5(C)[C@H]4C(=O)C[C@]3(C)[C@H]1[C@@H]2C` had an ED50 of 12 mg/kg. The same measure for `CCOCOC[C@@H]1O[C@@H](O[C@H]2[C@H](O)[C@H](O)[C@H](O[C@H]3CC[C@]4(C)C5C(=O)C[C@@]6(C)C(CC7O[C@]8(CC[C@@H](C)CO8)[C@@H](C)C76)C5CC[C@H]4C3)O[C@H]2COCOCC)[C@@H](O)[C@@H](O)[C@@H]1O` (stereo partly specified): 3 mg/kg.

The compound `C[C@@H]1CC[C@@]2(OC1)OC1CC3C4CC[C@H]5C[C@@H](O[C@@H]6O[C@@H](COC(=O)Nc7ccccc7F)[C@@H](O[C@@H]7O[C@@H](COC(=O)Nc8ccccc8F)[C@@H](O)[C@H](O)[C@@H]7O)[C@H](O)[C@@H]6O)CC[C@]5(C)C4C(=O)C[C@]3(C)C1[C@@H]2C` (stereo partly specified) displayed an ED50 of 0.8 mg/kg. Compared with the last compound, the ED50 is about 3.8-fold lower.

The compound `C[C@@H]1CC[C@@]2(OC1)O[C@H]1C[C@H]3[C@@H]4CC=C5C[C@@H](O[C@@H]6O[C@@H](CO)[C@@H](O[C@@H]7O[C@@H](CO)[C@@H](O)[C@H](O)[C@@H]7O)[C@H](O)[C@@H]6O)CC[C@]5(C)[C@H]4CC[C@]3(C)[C@H]1[C@@H]2C` yielded a median effective dose (ED50) of 100 mg/kg.

Compound `C[C@@H]1CC[C@@]2(OC1)OC1CC3C4CC[C@H]5C[C@@H](O[C@@H]6O[C@@H](CO)[C@@H](O[C@@H]7O[C@@H](COC(=O)Nc8ccc(Cl)cc8)[C@@H](O)[C@H](O)[C@@H]7O)[C@H](O)[C@@H]6O)CC[C@]5(C)C4C(=O)C[C@]3(C)C1[C@@H]2C` (stereo partly specified) returned a 50% effective dose (ED50) of 1 mg/kg. Take `C[C@@H]1CC[C@@]2(OC1)OC1CC3C4CC[C@H]5C[C@@H](O[C@@H]6O[C@@H](COC(=O)Nc7ccc(Cl)cc7)[C@@H](O[C@@H]7O[C@@H](COC(=O)Nc8ccc(Cl)cc8)[C@@H](O)[C@H](O)[C@@H]7O)[C@H](O)[C@@H]6O)CC[C@]5(C)C4C(=O)C[C@]3(C)C1[C@@H]2C` (stereo partly specified): the ED50 turned out to be 5 mg/kg.

As for `C[C@@H]1CC[C@@]2(OC1)OC1CC3C4CC[C@H]5C[C@@H](O[C@@H]6O[C@@H](CO)[C@@H](O[C@@H]7O[C@@H](COC(=O)Nc8ccccc8F)[C@@H](OC(=O)Nc8ccccc8F)[C@H](O)[C@@H]7O)[C@H](O)[C@@H]6O)CC[C@]5(C)C4CC[C@]3(C)C1[C@@H]2C` (stereo partly specified), the median effective dose (ED50) came to 1 mg/kg. Take `C[C@@H]1CC[C@@]2(OC1)OC1CC3C4CC[C@H]5C[C@@H](O[C@@H]6O[C@@H](CO)[C@@H](O[C@@H]7O[C@@H](COC(=S)Nc8ccccc8)[C@@H](OC(=S)Nc8ccccc8)[C@H](O)[C@@H]7O)[C@H](O)[C@@H]6O)CC[C@]5(C)C4C(=O)C[C@]3(C)C1[C@@H]2C` (stereo partly specified): it took a dose of 0.04 mg/kg to reach the 50% effect level (ED50). In the case of `C[C@@H]1CC[C@@]2(OC1)OC1CC3C4CC[C@H]5C[C@@H](O[C@@H]6O[C@@H](CO)[C@@H](O[C@@H]7O[C@@H](COC(=O)Nc8ccccc8)[C@@H](OC(=O)Nc8ccccc8)[C@H](O)[C@@H]7O)[C@H](O)[C@@H]6O)CC[C@]5(C)C4C(=O)C[C@]3(C)C1[C@@H]2C` (stereo partly specified), the ED50 was 0.1 mg/kg. Consider `C[C@@H]1CC[C@@]2(OC1)OC1CC3C4CC[C@H]5C[C@@H](O[C@@H]6O[C@@H](CO)[C@@H](O[C@@H]7O[C@@H](COC(=O)N8CCCC8)[C@@H](O)[C@H](O)[C@@H]7O)[C@H](O)[C@@H]6O)CC[C@]5(C)C4C(=O)C[C@]3(C)C1[C@@H]2C` (stereo partly specified), for which the median effective dose (ED50) turned out to be 1.5 mg/kg. This ED50 lies about 15-fold higher than the previous one. The figure for `C[C@@H]1CC[C@@]2(OC1)OC1CC3C4CC[C@H]5C[C@@H](O[C@@H]6O[C@@H](CO)[C@@H](O[C@@H]7O[C@@H](COC(=O)NCCc8ccccc8)[C@@H](O)[C@H](O)[C@@H]7O)[C@H](O)[C@@H]6O)CC[C@]5(C)C4C(=O)C[C@]3(C)C1[C@@H]2C` (stereo partly specified) is 5 mg/kg; for `C[C@@H]1CC[C@@]2(OC1)OC1CC3C4CC[C@H]5C[C@@H](O[C@@H]6O[C@@H](COC(=O)Nc7c(Cl)cccc7Cl)[C@@H](O[C@@H]7O[C@@H](COC(=O)Nc8c(Cl)cccc8Cl)[C@@H](O)[C@H](O)[C@@H]7O)[C@H](O)[C@@H]6O)CC[C@]5(C)C4C(=O)C[C@]3(C)C1[C@@H]2C` (stereo partly specified) it is 0.4 mg/kg; for `C[C@@H]1CC[C@@]2(OC1)OC1CC3C4CC[C@H]5C[C@@H](O[C@@H]6O[C@@H](COC(=O)Nc7ccccc7F)[C@@H](O[C@@H]7O[C@@H](CO)[C@@H](O)[C@H](O)[C@@H]7O)[C@H](O)[C@@H]6O)CC[C@]5(C)C4C(=O)C[C@]3(C)C1[C@@H]2C` (stereo partly specified) it is 7 mg/kg. Turning to `C[C@@H]1CC[C@@]2(OC1)OC1CC3C4CC[C@H]5C[C@@H](O[C@@H]6O[C@@H](CO)[C@@H](O[C@@H]7O[C@@H](COC(=O)Nc8ccccc8F)[C@@H](OC(=O)Nc8ccccc8F)[C@H](O)[C@@H]7O)[C@H](O)[C@@H]6O)CC[C@]5(C)C4CC(=O)[C@]3(C)C1[C@@H]2C` (stereo partly specified), the ED50 came to 0.07 mg/kg. The same measure for `CCOC(=O)CNC(=O)OC[C@@H]1O[C@@H](O[C@H]2[C@H](O)[C@H](O)[C@H](O[C@H]3CC[C@]4(C)C5C(=O)C[C@@]6(C)C(CC7O[C@]8(CC[C@@H](C)CO8)[C@@H](C)C76)C5CC[C@H]4C3)O[C@H]2CO)[C@@H](O)[C@@H](O)[C@@H]1OC(=O)NCC(=O)OCC` (stereo partly specified): 0.6 mg/kg; for `C[C@@H]1CC[C@@]2(OC1)OC1CC3C4CC[C@H]5C[C@@H](O[C@@H]6O[C@@H](CO)[C@@H](O[C@@H]7O[C@@H](COC(=O)NCc8ccccc8)[C@@H](OC(=O)NCc8ccccc8)[C@H](O)[C@@H]7O)[C@H](O)[C@@H]6O)CC[C@]5(C)C4C(=O)C[C@]3(C)C1[C@@H]2C` (stereo partly specified): 0.3 mg/kg. The same measure for `C[C@@H]1CC[C@@]2(OC1)OC1CC3C4CC[C@H]5C[C@@H](O[C@@H]6O[C@@H](CO)[C@@H](O[C@@H]7O[C@@H](COC(=O)Nc8ccc(F)cc8)[C@@H](OC(=O)Nc8ccc(F)cc8)[C@H](O)[C@@H]7O)[C@H](O)[C@@H]6O)CC[C@]5(C)C4C(=O)C[C@]3(C)C1[C@@H]2C` (stereo partly specified): 0.2 mg/kg; for `C[C@@H]1CC[C@@]2(OC1)OC1CC3C4CC[C@H]5C[C@@H](O[C@@H]6O[C@@H](CO)[C@@H](O[C@@H]7O[C@@H](COC(=O)Nc8cccc(F)c8)[C@@H](OC(=O)Nc8cccc(F)c8)[C@H](O)[C@@H]7O)[C@H](O)[C@@H]6O)CC[C@]5(C)C4C(=O)C[C@]3(C)C1[C@@H]2C` (stereo partly specified): 0.1 mg/kg; for `C[C@@H]1CC[C@@]2(OC1)OC1CC3C4CC[C@H]5C[C@@H](O[C@@H]6O[C@@H](CO)[C@@H](O[C@@H]7O[C@@H](COC(=O)Nc8c(Cl)cccc8Cl)[C@@H](O)[C@H](O)[C@@H]7O)[C@H](O)[C@@H]6O)CC[C@]5(C)C4C(=O)C[C@]3(C)C1[C@@H]2C` (stereo partly specified): 0.2 mg/kg. On to `CC(C)CCC[C@@H](C)C1CC[C@H]2[C@@H]3CC[C@H]4C[C@@H](O[C@@H]5O[C@@H](CO)[C@@H](O[C@@H]6O[C@@H](CO)[C@@H](O)[C@H](O)[C@@H]6O)[C@H](O)[C@@H]5O)CC[C@]4(C)[C@H]3CC[C@]12C` (stereo partly specified), for which the ED50 was 150 mg/kg. Compared with the last compound, the ED50 is about 750-fold higher.

`C[C@H]1CC[C@@]2(OC1)O[C@H]1C[C@H]3[C@@H]4CC[C@@H]5C[C@@H](O[C@@H]6O[C@@H](CO)[C@@H](O[C@@H]7O[C@@H](CO)[C@@H](O)[C@H](O)[C@@H]7O)[C@H](O)[C@@H]6O)CC[C@]5(C)[C@H]4CC[C@]3(C)C1[C@@H]2C` (stereo partly specified) returned a median effective dose (ED50) of 75 mg/kg. Compound `C[C@@H]1CC[C@@]2(OC1)OC1CC3C4CC[C@H]5C[C@@H](O[C@@H]6O[C@@H](CO)[C@@H](O[C@@H]7O[C@@H](COC(=O)Nc8ccccc8F)[C@@H](OC(=O)Nc8ccccc8F)[C@H](O)[C@@H]7O)[C@H](O)[C@@H]6O)CC[C@]5(C)C4C(=O)C[C@]3(C)C1[C@@H]2C` (stereo partly specified) gave a 50% effective dose (ED50) of 0.025 mg/kg. `C[C@@H]1CC[C@@]2(OC1)OC1CC3C4CC[C@H]5C[C@@H](O[C@@H]6O[C@@H](CO)[C@@H](O[C@@H]7O[C@@H](COC(=O)Nc8ccc(F)cc8F)[C@@H](OC(=O)Nc8ccc(F)cc8F)[C@H](O)[C@@H]7O)[C@H](O)[C@@H]6O)CC[C@]5(C)C4C(=O)C[C@]3(C)C1[C@@H]2C` (stereo partly specified) displayed a 50% effective dose (ED50) of 0.04 mg/kg. The same measure for `Cc1ccccc1NC(=O)OC[C@@H]1O[C@@H](O[C@H]2[C@H](O)[C@H](O)[C@H](O[C@H]3CC[C@]4(C)C5C(=O)C[C@@]6(C)C(CC7O[C@]8(CC[C@@H](C)CO8)[C@@H](C)C76)C5CC[C@H]4C3)O[C@H]2CO)[C@@H](O)[C@@H](O)[C@@H]1O` (stereo partly specified): 0.5 mg/kg; for `CC1CC[C@@]2(OC1)OC1C[C@H]3[C@@H]4CC[C@H]5C[C@@H](OC6OC(CCl)C(OC7OC(CCl)C(O)C(O)C7O)C(O)C6O)CC[C@]5(C)[C@H]4C(=O)C[C@]3(C)C1[C@@H]2C` (stereo partly specified): 0.5 mg/kg; for `CC1CC[C@@]2(OC1)OC1C[C@H]3[C@@H]4CC[C@H]5C[C@@H](OC6OC(CF)C(OC7OC(CF)C(O)C(O)C7O)C(O)C6O)CC[C@]5(C)[C@H]4C(=O)C[C@]3(C)C1[C@@H]2C` (stereo partly specified): 0.7 mg/kg.

Take `CC1CC[C@@]2(OC1)OC1C[C@H]3[C@@H]4CC[C@H]5C[C@@H](OC6OC(CI)C(OC7OC(CI)C(O)C(O)C7O)C(O)C6O)CC[C@]5(C)[C@H]4C(=O)C[C@]3(C)C1[C@@H]2C` (stereo partly specified): the ED50 worked out at 1.5 mg/kg. This ED50 is about 2.1-fold higher than that of the compound before.

As for `CC1CC[C@@]2(OC1)OC1C[C@H]3[C@@H]4CC[C@H]5C[C@@H](OC6OC(C)C(OC7OC(C)C(O)C(O)C7O)C(O)C6O)CC[C@]5(C)[C@H]4C(=O)C[C@]3(C)C1[C@@H]2C` (stereo partly specified), the ED50 is 6.5 mg/kg. `CC1CC[C@@]2(OC1)OC1C[C@H]3[C@@H]4CC[C@H]5C[C@@H](O[C@@H]6O[C@@H](CO)C(O[C@@H]7O[C@@H](COC(=O)Nc8ccccc8Cl)[C@@H](OC(=O)Nc8ccccc8Cl)[C@H](O)[C@@H]7O)[C@@H](O)[C@@H]6O)CC[C@]5(C)[C@H]4C(=O)C[C@]3(C)C1[C@@H]2C` (stereo partly specified) gave an ED50 of 1 mg/kg. With `CC1CC[C@@]2(OC1)OC1C[C@H]3[C@@H]4CC[C@H]5C[C@@H](O[C@@H]6O[C@@H](CO)[C@@H](O[C@@H]7O[C@@H](COC(=O)N8CCOCC8)[C@@H](OC(=O)N8CCOCC8)[C@H](O)C7O)[C@H](O)[C@@H]6O)CC[C@]5(C)[C@H]4C(=O)C[C@]3(C)C1[C@@H]2C` (stereo partly specified), the 50% effect level (ED50) was put at a dose of 4 mg/kg.
